Test results reported in US20090099169A1, “Benzofuran Compounds As EP1 Receptor Antagonists” (GLAXO GROUP LIMITED, priority 2006, published 2009).
Counter-ions that a name gives are not always drawn.

Target: T1, human EP1 receptor (Homo sapiens, UniProt P34995)
T1 sequence (P34995 1-402): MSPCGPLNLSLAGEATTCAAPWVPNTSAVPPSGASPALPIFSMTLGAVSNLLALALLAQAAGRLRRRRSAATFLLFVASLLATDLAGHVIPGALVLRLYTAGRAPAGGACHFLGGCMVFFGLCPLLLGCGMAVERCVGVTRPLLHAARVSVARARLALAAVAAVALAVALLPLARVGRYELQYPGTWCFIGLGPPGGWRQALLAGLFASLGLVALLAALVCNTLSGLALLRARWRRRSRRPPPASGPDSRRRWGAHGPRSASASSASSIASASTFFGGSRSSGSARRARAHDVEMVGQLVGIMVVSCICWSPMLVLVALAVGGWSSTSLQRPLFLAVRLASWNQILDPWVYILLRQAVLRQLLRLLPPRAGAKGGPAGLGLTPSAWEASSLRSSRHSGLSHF
Assay: human EP1 calcium mobilisation assay
Type: cell-based
Design: expressed in transfected cells
Conditions: CHO-K1 cells, antagonism of PGE2; averages of a number of experiments; read-out: functional pKi value (human EP1 calcium mobilisation assay) (converted)
Protocol: Briefly, the antagonist properties of compounds are assessed by their ability to inhibit the mobilisation of intracellular calcium ([Ca^2+]i) in response to activation of EP1 or EP3 receptors by the natural agonist hormone prostaglandin E2 (PGE2). Increasing concentrations of antagonist reduce the amount of calcium that a given concentration of PGE2 can mobilise. The net effect is to displace the PGE2 concentration-effect curve to higher concentrations of PGE2. The amount of calcium produced is assessed using a calcium-sensitive fluorescent dye such as Fluo-4, AM and a suitable instrument such as a Fluorimetric Imaging Plate Reader (FLIPR). Increasing amounts of [Ca^2+]i produced by receptor activation increase the amount of fluorescence produced by the dye and give rise to an increasing signal. The signal may be detected using the FLIPR instrument and the data generated may be analysed with suitable curve-fitting software.
The human EP1 or EP3 calcium mobilisation assay (hereafter referred to as ‘the calcium assay’) utilises Chinese hamster ovary-K1 (CHO-K1) cells into which a stable (PCIN; BioTechniques 20 (1996): 102-110) vector containing either EP1 or EP3 cDNA has previously been transfected. Cells are cultured in suitable flasks containing culture medium such as DMEM:F-12 supplemented with 10% v/v foetal calf serum, 2 mM L-glutamine, 0.25 mg/ml geneticin, 100 μM flurbiprofen and 10 μg/ml puromycin.
For assay, cells are harvested using a proprietary reagent that dislodges cells such as Versene. Cells are re-suspended in a suitable quantity of fresh culture media for introduction into a 384-well plate. Following incubation for 24 hours at 37° C. the culture media is replaced with a medium containing Fluo-4 and the detergent pluronic acid, and a further incubation takes place. Concentrations of compounds are then added to the plate in order to construct concentration-effect curves. This may be performed on the FLIPR in order to assess the agonist properties of the compounds. Concentrations of PGE2 are then added to the plate in order to assess the antagonist properties of the compounds.
The data so generated may be analysed by means of a computerised curve-fitting routine. The concentration of compound that elicits a half-maximal inhibition of the calcium mobilisation induced by PGE2 (pIC50) may then be estimated.

| Compound | Ki [nM] |
| --- | --- |
| CC(C)c1cc2cc(Cl)cc(Cc3ccc(-c4nc5cc(CN(C)C)ccc5[nH]4)o3)c2o1 [Example 11, 1-[2-(5-{[5-Chloro-2-(1-methylethyl)-1-benzofuran-7-yl]methyl}-2-furanyl)-1H-benzimidazol-5-yl]-N,N-dimethylmethanamine Hydrochloride] | ≤ 316 |
| CC(C)c1cc2cc(Cl)cc(Cc3ccc(-c4nc5cc(CN6CCCC6)ccc5[nH]4)o3)c2o1 [Example 12, 2-(5-{[5-Chloro-2-(1-methylethyl)-1-benzofuran-7-yl]methyl}-2-furanyl)-5-(1-pyrrolidinylmethyl)-1H-benzimidazole Hydrochloride] | ≤ 316 |
| CC(C)c1cc2cc(Cl)cc(Cc3ccc(-c4nc5cc(CN6CCN(C)CC6)ccc5[nH]4)o3)c2o1 [Example 13, 2-(5-{[5-Chloro-2-(1-methylethyl)-1-benzofuran-7-yl]methyl}-2-furanyl)-5-[(4-methyl-1-piperazinyl)methyl]-1H-benzimidazole Hydrochloride] | ≤ 316 |
| Cc1cc(C(=O)O)nn1Cc1cccc2cc(C(C)C)oc12 [Example 20, 5-Methyl-1-{[2-(1-methylethyl)-1-benzofuran-7-yl]methyl}-1H-pyrazole-3-carboxylic Acid] | ≤ 316 |
| Cc1cc(C(=O)NN2CCOCC2)nn1Cc1cc(Cl)cc2cc(C3CC3)oc12 [Example 31, 1-[(5-Chloro-2-cyclopropyl-1-benzofuran-7-yl)methyl]-5-methyl-N-4-morpholinyl-1H-pyrazole-3-carboxamide] | ≤ 316 |
| Cc1cc(C(=O)NC2CCNCC2)nn1Cc1cc(Cl)cc2cc(C(C)C)oc12 [Example 33, 1-{[5-chloro-2-(1-methylethyl)-1-benzofuran-7-yl]methyl}-5-methyl-N-4-piperidinyl-1H-pyrazole-3-carboxamide Hydrochloride] | 1000 to 1580 |
| CCN1CCC(CNC(=O)c2cc(C)n(Cc3cc(Cl)cc4cc(C(C)C)oc34)n2)CC1 [Example 36, 1-{[5-chloro-2-(1-methylethyl)-1-beenzofuran-7-yl]methyl}-N-[(1-ethyl-4-piperidinyl)methyl]-5-methyl-1H-pyrazole-3-carboxamidehydrochloride] | 1000 to 1580 |
| CC(C)c1cc2cc(Cl)cc(Cc3cccc(C(N)=O)n3)c2o1 [Example 40, 6-{[5-Chloro-2-(1-methylethyl)-1-benzofuran-7-yl]methyl}-2-pyridinecarboxamide] | ≤ 316 |
| Cc1cc(C(N)=O)nn1Cc1cc(C#N)cc2cc(C(C)C)oc12 [Example 41, 1-{[5-Cyano-2-(1-methylethyl)-1-benzofuran-7-yl]methyl}-5-methyl-1H-pyrazole-3-carboxamide] | ≤ 316 |
| CC(C)c1cc2cc(Cl)cc(Cc3ccc(C(=O)NN4CCOCC4)o3)c2o1 [Example 42, 5-{[5-Chloro-2-(1-methylethyl)-1-benzofuran-7-yl]methyl}-N-4-morpholinyl-2-furancarboxamide] | ≤ 316 |
| CC(C)c1cc2cc(Cl)cc(Cc3ccc(C(=O)NN4CCCCC4)o3)c2o1 [Example 43, 5-{[5-Chloro-2-(1-methylethyl)-1-benzofuran-7-yl]methyl}-N-1-piperidinyl-2-furancarboxamide] | ≤ 316 |
| Cc1cc(C(=O)NN2CCOCC2)nn1Cc1cc(C#N)cc2cc(C(C)C)oc12 [Example 45, 1-{[5-Cyano-2-(1-methylethyl)-1-benzofuran-7-yl]methyl}-5-methyl-N-4-morpholinyl-1H-pyrazole-3-carboxamide] | ≤ 316 |
| CC(C)c1cc2cc(Cl)cc(Cc3ccc(C(=O)Nc4ccc(CN5CCOCC5)cc4)o3)c2o1 [Example 54, 5-{[5-Chloro-2-(1-methylethyl)-1-benzofuran-7-yl]methyl}-N-[4-(4-morpholinylmethyl)phenyl]-2-furancarboxamide Hydrochloride] | ≤ 316 |
| CC(C)c1cc2cc(Cl)cc(Cc3ccc(C(=O)NCCN(C)C)o3)c2o1 [Example 58, 5-{[5-Chloro-2-(1-methylethyl)-1-benzofuran-7-yl]methyl}-N-[2-(dimethylamino)ethyl]-2-furancarboxamidehydrochloride] | 1000 to 1580 |
| Cc1cc(C(=O)NCC2CCOCC2)nn1Cc1cc(Cl)cc2cc(C(C)C)oc12 [Example 61, 1-{[5-Chloro-2-(1-methylethyl)-1-benzofuran-7-yl]methyl}-5-methyl-N-(tetrahydro-2H-pyran-4-ylmethyl)-1H-pyrazole-3-carboxamide] | ≤ 316 |
| Cc1cc(NC(=O)[C@H]2CCCO2)nn1Cc1cc(C#N)cc2cc(C(C)C)oc12 [Example 69, (2R)—N-(1-{[5-Cyano-2-(1-methylethyl)-1-benzofuran-7-yl]methyl}-5-methyl-1H-pyrazol-3-yl)tetrahydro-2-furancarboxamide] | ≤ 316 |
| Cc1cc(NC(=O)C2CCOCC2)nn1Cc1cc(C#N)cc2cc(C(C)C)oc12 [Example 70, N-(1-{[5-Cyano-2-(1-methylethyl)-1-benzofuran-7-yl]methyl}-5-methyl-1H-pyrazol-3-yl)tetrahydro-2H-pyran-4-carboxamide] | ≤ 316 |
